Test results as given in patent US20080200454A1, “CARBON-LINKED TETRAHYDRO-PYRAZOLO-PYRIDINE MODULATORS OF CATHEPSIN S” (priority 2007, published 2008).

Biological target: Recombinant human cathepsin S (CatS) (Homo sapiens, UniProt P25774)
Test: Recombinant human cathepsin S (CatS) inhibition assay, fluorogenic substrate Z-Valine-Valine-Arginine-AMC;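 also: Baculovirus-expressed CatS in pH 5.0 sodium acetate buffer with DTT and NaCl, fluorescence read each minute over 20 min, inhibition derived from rate slope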
Settings: not given

Chain of Recombinant human cathepsin S (CatS) (P25774 115-331): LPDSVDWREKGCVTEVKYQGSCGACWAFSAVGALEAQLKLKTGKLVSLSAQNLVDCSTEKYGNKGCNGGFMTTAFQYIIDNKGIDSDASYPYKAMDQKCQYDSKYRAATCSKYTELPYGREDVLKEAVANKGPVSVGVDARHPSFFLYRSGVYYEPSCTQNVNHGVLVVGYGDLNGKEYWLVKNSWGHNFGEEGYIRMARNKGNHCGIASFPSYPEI

Structure (SMILES) | IC50 [nM]
CS(=O)(=O)N1CCc2c(c(-c3ccc(Cl)c(CCCCN4CCCCCC4)c3)nn2CCCN2CCC(N3CCCC3=O)CC2)C1 [Example 114, 1-[1-(3-{3-[3-(4-Azepan-1-yl-butyl)-4-chloro-phenyl]-5-methanesulfonyl-4,5,6,7-tetrahydro-pyrazolo[4,3-c]pyridin-1-yl}-propyl)-piperidin-4-yl]-pyrrolidin-2-one] | 1520
CN(C)C(=O)C(=O)N1CCc2c(c(-c3ccc(Cl)c(C#Cc4ccc(CNCc5ccc(Cl)cc5)cc4)c3)nn2CCCN2CCOCC2)C1 [Example 152, 2-[3-(4-Chloro-3-{[4-({[(4-chlorophenyl)methyl]amino}methyl)phenyl]ethynyl}phenyl)-1-(3-morpholin-4-ylpropyl)-1,4,6,7-tetrahydro-5H-pyrazolo[4,3-c]pyridin-5-yl]-N,N-dimethyl-2-oxoacetamide] | 110
CS(=O)(=O)N1CCc2c(c(-c3ccc(Cl)c(C#Cc4ccc(CNCc5ccc(Cl)cc5)cc4)c3)nn2CCCN2CCOC(CO)C2)C1 (stereo not drawn) [Example 389] | 230
CNCc1ccc(C#Cc2cc(-c3nn(CCCN4CCOCC4)c4c3CN(S(C)(=O)=O)CC4)ccc2Cl)cc1 [Example 315, 1-[4-({2-Chloro-5-[5-(methylsulfonyl)-1-(3-morpholin-4-ylpropyl)-4,5,6,7-tetrahydro-1H-pyrazolo[4,3-c]pyridin-3-yl]phenyl}ethynyl)phenyl]-N-methylmethanamine] | 1360
CS(=O)(=O)N1CCc2c(c(-c3cccc(CCc4cccc(O)c4)c3)nn2CCCN2CCOCC2)C1 [Example 296, 3-(2-{3-[5-(Methylsulfonyl)-1-(3-morpholin-4-ylpropyl)-4,5,6,7-tetrahydro-1H-pyrazolo[4,3-c]pyridin-3-yl]phenyl}ethyl)phenol] | 15500
NC(=O)C(=O)N1CCc2c(c(-c3ccc(Cl)c(C#Cc4ccc(Cl)c(C(=O)NC[C@@H]5CCCN5)c4)c3)nn2CCCN2CCSCC2)C1 [Example 557, 5-[(5-{5-[Amino(oxo)acetyl]-1-(3-thiomorpholin-4-ylpropyl)-4,5,6,7-tetrahydro-1H-pyrazolo[4,3-c]pyridin-3-yl}-2-chlorophenyl)ethynyl]-2-chloro-N-[(2S)-pyrrolidin-2-ylmethyl]benzamide] | 30
C[C@H]1COCCN1CCCn1nc(-c2ccc(Cl)c(C#Cc3cccc(CNCc4ccc(Cl)cc4)c3)c2)c2c1CCN(S(C)(=O)=O)C2 [Example 439, 1-[3-({2-Chloro-5-[1-{3-[(3S)-3-methylmorpholin-4-yl]propyl}-5-(methylsulfonyl)-4,5,6,7-tetrahydro-1H-pyrazolo[4,3-c]pyridin-3-yl]phenyl}ethynyl)phenyl]-N-[(4-chlorophenyl)methyl]methanamine] | 320
CS(=O)(=O)N1CCc2c(c(-c3ccc(Cl)c(C#Cc4ccc(CNCc5ccc(Cl)cc5)cc4)c3)nn2CCCN2CCN(c3ccc(O)cc3)CC2)C1 [Example 410, 4-(4-{3-[3-(4-Chloro-3-{[4-({[(4-chlorophenyl)methyl]amino}methyl)phenyl]ethynyl}phenyl)-5-(methylsulfonyl)-4,5,6,7-tetrahydro-1H-pyrazolo[4,3-c]pyridin-1-yl]propyl}piperazin-1-yl)phenol] | 40
NC(=O)N1CCc2c(c(-c3ccc(Cl)c(C#Cc4ccc(CNCc5ccc(Cl)cc5)cc4)c3)nn2C[C@@H](O)CN2CCOCC2)C1 [Example 259, (S)-3-(4-Chloro-3-{4-[(4-chloro-benzylamino)-methyl]-phenylethynyl}-phenyl)-1-(2-hydroxy-3-morpholin-4-yl-propyl)-1,4,6,7-tetrahydro-pyrazolo[4,3-c]pyridine-5-carboxylic acid amide] | 80
CN(C)CCCc1cc(-c2nn(CCCN3CCC(N4CCCC4=O)CC3)c3c2CN(S(C)(=O)=O)CC3)ccc1Cl [Example 314, 1-(1-{3-[3-{4-Chloro-3-[3-(dimethylamino)propyl]phenyl}-5-(methylsulfonyl)-4,5,6,7-tetrahydro-1H-pyrazolo[4,3-c]pyridin-1-yl]propyl}piperidin-4-yl)pyrrolidin-2-one] | 3660
CCNCc1cc(C#Cc2cc(-c3nn(CCCN4CCCCC4)c4c3CN(C(=O)C(N)=O)CC4)ccc2Cl)ccc1Cl [Example 592, 2-{3-[4-Chloro-3-({4-chloro-3-[(ethylamino)methyl]phenyl}ethynyl)phenyl]-1-(3-piperidin-1-ylpropyl)-1,4,6,7-tetrahydro-5H-pyrazolo[4,3-c]pyridin-5-yl}-2-oxoacetamide] | 20
NC(=O)C(=O)N1CCc2c(c(-c3ccc(Cl)c(C#Cc4ccc(CNCc5ccc(Cl)cc5)cc4)c3)nn2C[C@@H](O)CN2CCOCC2)C1 [Example 253, (S)-2-[3-(4-Chloro-3-{4-[(4-chloro-benzylamino)-methyl]-phenylethynyl}-phenyl)-1-(2-hydroxy-3-morpholin-4-yl-propyl)-1,4,6,7-tetrahydro-pyrazolo[4,3-c]pyridin-5-yl]-2-oxo-acetamide] | 60

Same assay, conditions: CatS IC50

Structure (SMILES) | IC50 [nM]
CS(=O)(=O)N1CCc2c(c(-c3ccc(Cl)c(C#Cc4ccc5c(c4)CNC5)c3)nn2CCCN2CCOCC2)C1 [Example 393, 3-[4-Chloro-3-(2,3-dihydro-1H-isoindol-5-ylethynyl)phenyl]-5-(methylsulfonyl)-1-(3-morpholin-4-ylpropyl)-4,5,6,7-tetrahydro-1H-pyrazolo[4,3-c]pyridine] | 220
NC(=O)C(=O)N1CCc2c(c(-c3ccc(Cl)c(C#Cc4ccc(CNCc5ccc(Cl)cc5)cc4)c3)nn2C[C@H](O)CN2CCSCC2)C1 [Example 250, (R)-2-[3-(4-Chloro-3-{4-[(4-chloro-benzylamino)-methyl]-phenylethynyl}-phenyl)-1-(2-hydroxy-3-thiomorpholin-4-yl-propyl)-1,4,6,7-tetrahydro-pyrazolo[4,3-c]pyridin-5-yl]-2-oxo-acetamide] | 80
CS(=O)(=O)N1CCc2c(c(-c3ccc(Cl)c(C#Cc4cccc(CNCc5ccncc5)c4)c3)nn2CCCN2CCOCC2)C1 [Example 522, 1-[3-({2-Chloro-5-[5-(methylsulfonyl)-1-(3-morpholin-4-ylpropyl)-4,5,6,7-tetrahydro-1H-pyrazolo[4,3-c]pyridin-3-yl]phenyl}ethynyl)phenyl]-N-(pyridin-4-ylmethyl)methanamine] | 330
C[C@H]1COCCN1CCCn1nc(-c2ccc(Cl)c(C#Cc3ccc(CNCc4ccc(Cl)cc4)cc3)c2)c2c1CCN(S(C)(=O)=O)C2 [Example 182, 1-[4-({2-Chloro-5-[1-{3-[(3S)-3-methylmorpholin-4-yl]propyl}-5-(methylsulfonyl)-4,5,6,7-tetrahydro-1H-pyrazolo[4,3-c]pyridin-3-yl]phenyl}ethynyl)phenyl]-N-[(4-chlorophenyl)methyl]methanamine] | 80
CC(=O)N1CCC(C2CCN(C[C@H](O)Cn3nc(-c4ccc(Cl)c(CCc5ccc(Cl)cc5)c4)c4c3CCN(S(C)(=O)=O)C4)CC2)CC1 [Example 247, (2S)-1-(1′-Acetyl-4,4′-bipiperidin-1-yl)-3-[3-{4-chloro-3-[2-(4-chlorophenyl)ethyl]phenyl}-5-(methylsulfonyl)-4,5,6,7-tetrahydro-1H-pyrazolo[4,3-c]pyridin-1-yl]propan-2-ol] | 70
CS(=O)(=O)N1CCc2c(c(-c3ccc(Cl)c(C#Cc4ccc(NCCc5ccccc5)cc4)c3)nn2CCCN2CCOCC2)C1 [Example 327, 4-({2-Chloro-5-[5-(methylsulfonyl)-1-(3-morpholin-4-ylpropyl)-4,5,6,7-tetrahydro-1H-pyrazolo[4,3-c]pyridin-3-yl]phenyl}ethynyl)-N-(2-phenylethyl)aniline] | 760
